Assays:
[1] = target: T1, PI-3 kinase γ (Homo sapiens, UniProt P48736); test: PI3Kγ inhibitory activity, PI3-kinase HTRF assay (inhibition ratio); assay type: biochemical; settings: 0.5 h; for inhibition at 50 µM: compound at 50 μM
Summary of the method: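 Single-concentration inhibition ratio (50 or 10 μmol/L compound) versus no-compound (100%) and no-enzyme (0%) wells. Reaction: PI-3 kinase γ, PIP2, ATP, MgCl2/DTT, 30 min at RT after 10 min preincubation. Read-out: HTRF 665/620 nm after 18 h detection.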

[2] = target: T2, human ether-a-go-go related gene (hERG) channel (Homo sapiens, UniProt Q12809); test: hERG test, whole-cell patch-clamp; assay type: cell-based; settings: HEK293 cell expressing hERG; applied for 10 minutes; concentration not given
T2 construct: expressed in transfected cells; host or cells: HEK293
T2 sequence (Q12809 whole entry): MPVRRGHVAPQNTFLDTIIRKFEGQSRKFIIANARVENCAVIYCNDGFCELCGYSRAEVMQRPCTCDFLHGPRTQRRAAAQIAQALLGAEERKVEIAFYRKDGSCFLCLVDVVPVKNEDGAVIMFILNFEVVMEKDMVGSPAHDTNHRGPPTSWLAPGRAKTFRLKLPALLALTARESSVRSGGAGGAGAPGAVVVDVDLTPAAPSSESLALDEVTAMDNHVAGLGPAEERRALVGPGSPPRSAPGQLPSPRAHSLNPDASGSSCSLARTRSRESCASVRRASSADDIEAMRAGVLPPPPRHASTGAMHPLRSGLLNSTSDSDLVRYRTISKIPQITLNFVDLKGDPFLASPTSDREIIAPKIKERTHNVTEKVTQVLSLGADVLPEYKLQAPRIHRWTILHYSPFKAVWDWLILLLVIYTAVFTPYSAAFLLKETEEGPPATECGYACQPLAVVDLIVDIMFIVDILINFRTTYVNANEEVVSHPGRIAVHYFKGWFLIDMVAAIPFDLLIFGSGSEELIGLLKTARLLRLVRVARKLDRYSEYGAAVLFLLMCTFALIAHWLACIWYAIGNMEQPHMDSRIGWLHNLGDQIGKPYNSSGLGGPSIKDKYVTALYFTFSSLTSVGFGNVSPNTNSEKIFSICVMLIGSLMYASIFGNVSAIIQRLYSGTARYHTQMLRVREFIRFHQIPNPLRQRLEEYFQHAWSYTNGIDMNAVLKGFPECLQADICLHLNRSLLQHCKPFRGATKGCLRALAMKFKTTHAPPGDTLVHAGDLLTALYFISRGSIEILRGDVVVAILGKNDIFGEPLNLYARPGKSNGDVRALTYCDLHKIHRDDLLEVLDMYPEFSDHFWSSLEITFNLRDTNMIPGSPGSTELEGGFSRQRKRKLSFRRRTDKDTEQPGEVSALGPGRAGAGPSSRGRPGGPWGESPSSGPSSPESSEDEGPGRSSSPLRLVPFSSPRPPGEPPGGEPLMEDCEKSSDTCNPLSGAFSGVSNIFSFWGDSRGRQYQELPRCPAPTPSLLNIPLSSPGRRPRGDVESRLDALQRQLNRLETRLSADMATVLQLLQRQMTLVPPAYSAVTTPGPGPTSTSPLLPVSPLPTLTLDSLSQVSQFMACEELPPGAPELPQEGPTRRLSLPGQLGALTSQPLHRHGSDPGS
From the text: For the purpose of risk evaluation of QT interval extension of electrocardiogram, the activity on delayed rectification K^+ current (IKr), which plays an important role in a cardiac ventricle repolarization process, was examined using the HEK293 cell that was made to express human ether-a-go-go related gene (hERG) channel.
Using an automatic patch-clamp system (PatchXpress 7000A, Axon Instruments Inc.), by a whole-cell patch-clamp method, after the cell was maintained at a membrane potential of −80 mV, IKr induced upon applying depolarizing stimulation of +50 mV for 2 seconds and further applying repolarizing stimulation of −50 mV for 2 seconds was recorded. After generated electric current became stable, a test substance dissolved at an intended concentration in extracellular fluid (137 mmol/L NaCl, 4 mmol/L KCl, 1.8 mmol/L CaCl2.2H2O, 1 mmol/L MgCl2.6H2O, 10 mmol/L glucose, 10 mmol/L HEPES (4-(2-hydroxyethyl)-1-piperazineethanesulfonic acid), pH=7.4) was applied to the cell for 10 minutes under room temperature condition. From the obtained IKr, the absolute value of the maximum tail current was measured using analysis software (DataXpress ver. 1, Molecular Devices Corporation) and the value of the electric current in a maintained membrane potential as baseline. Moreover, an inhibition ratio for the maximum tail current prior to the application of the test substance was calculated and then compared with a group of media-application (0.1% dimethylsulfoxide solution) to evaluate influence of the test substance on IKr.

[3] = tested on: AKT phosphorylation in human monocyte-like cell line THP-1; test: AKT phosphorylation inhibitory activity in MCP-1-stimulated THP-1 cells (ELISA); assay type: cell-based; settings: 1 μmol/L solution of each compound, MCP-1 stimulation, read-out: AKT phosphorylation inhibition ratio
Experimental: (1) The AKT phosphorylation inhibitory activity of a compound was evaluated according to the following procedure. (2) Human monocyte-like cell line THP-1 was washed with RPMI-1640 media, incubated in the presence of 5% CO2 at 37° C. for 3 hours, washed with Hank's balanced salt solution (HBSS), adjusted to a cell concentration of 6.6×10^6/mL, and then used in an experiment. (3) 30 μL of the cell suspension and 60 μL of each compound solution containing 0.2% DMSO/HBSS were mixed and then preincubated at 37° C. for 5 minutes. 30 μL of HBSS containing 4 μg/mL of MCP-1 was added thereto and then incubated for 30 seconds at 37° C. (4) 30 μl of a cell lysate (20 mmol/L Tris-HCl (pH 7.5), 150 mmol/L NaCl, 1 mmol/L Na2EDTA, 1 mmol/L EGTA, 1% Triton, 2.5 mmol/L sodium pyrophosphate, 1 mmol/L β-glycerophosphate, 1 mmol/L Na3VO4, 1 μg/ml leupeptin, 50 nmol/L APMSF) was added thereto to lyse cells. (5) The amount of AKT phosphorylation in the cell lysate was measured by ELISA method. (6) Anti-phospho-Akt (Ser473) antibodies (clone 193H12, derived from a rabbit) were immobilized onto the solid phase of a micro well plate. 100 μL of the prepared cell lysate was added to the micro well plate, incubated for 2 hours at 37° C., and then washed four times with Phosphate Buffered Saline containing 0.05% Tween-20. (7) An anti-AKT1 antibody (clone 2H10, derived from a mouse) was added thereto, incubated for 1 hour at 37° C., washed similarly, and then reacted with an HRP-labeled anti-mouse IgG antibody. (8) After incubating at 37° C. for 30 minutes and then washing similarly, 100 μL of TMB (3,3′,5,5″-tetramethylbenzidine) was added thereto, followed by reacting at room temperature for 30 minutes. (9) 100 μL of 1 mol/L sulfuric acid was added to quench the color reaction and then the absorbance at 450 nm was measured. (10) A series of diluted cell lysates of a positive control (a sample in the absence of a compound) were used to prepare a calibration curve, the amount of AKT phosphorylation in a sample in the absence of MCP-1 was defined as 0% activity to calculate an inhibition ratio. The measurement was performed for a 1 μmol/L solution of each compound.

[4] = target: T1, PI-3 kinase γ; test: PI3Kγ inhibitory activity (Ki value), HTRF; assay type: biochemical; settings: Ki=IC50/(1+10 μM ATP/Km)
Experimental: The PI3Kγ inhibitory activity (Ki value) of a compound was evaluated according to the following procedure:
5 μL of a compound solution containing 10% DMSO and 200 μmol/L of a compound was changed to 5 μL of a compound solution containing 10% DMSO and either 200, 64, 20, 6.4, 2, 0.64, or 0.20 μmol/L of the compound (optionally, this is diluted to a lower concentration). Using a method similar to the method for measuring PI3Kγ inhibitory activity, inhibition ratios were measured in the presence of the compound at 50, 16, 5, 1.6, 0.5, 0.16, and 0.05 μmol/L (optionally, a lower concentration). Then an IC50 value was calculated by a logistic approximation method or the linear regression method using two concentrations that across 50% inhibition. Separately, the ATP concentration in the reaction solution (40 μmol/L ATP, 10 mmol/L MgCl2, 5 mmol/L DTT) at the time of the start of a reaction in the absence of the compound was changed to 80, 40, 20, 10, 5, 2.5, 1.25, or 0.625 μmol/L. Then, HTRF ratios were measured by a similar method. The value obtained by subtracting the HTRF ratio at each ATP concentration from the HTRF ratio in the absence of PI-3 kinase γ was defined as the value obtained by multiplying reaction rate (v) at each ATP concentration with a constant. The Michaelis-Menten constant Km was then calculated by the Lineweaver-Burk plot method. The Ki value of a compound was calculated by the following formula.
Ki=IC50 value/(1+10 μM (test ATP concentration)/Km (μM))

[5] = Solubility test; assay type: physicochemical; settings: kinetic from dmso stock; artificial intestinal juice pH 6.8, 1% DMSO, 25° C. for 16 hours
Experimental: The solubility of a compound was determined under a condition in which 1% DMSO was added. 10 mmol/L compound solution was prepared using DMSO, and then 6 μL of the compound solution was added to 594 μL of artificial intestinal juice in pH 6.8 (to 250 mL of 0.2 mol/L potassium dihydrogen phosphate reagent solution was added 118 mL of 0.2 mol/L NaOH reagent solution and water to provide a final volume of 1000 mL). After standing at 25° C. for 16 hours, the mixed solution was filtered with suction. The filtrate was diluted twice with methanol/water (1/1), and then a concentration in the filtration was measured with HPLC or LC/MS/MS by the absolute calibration method.

[6] = Metabolic stability test; assay type: in vitro ADME; settings: human liver microsome 0.5 mg protein/mL, 1 mmol/L NADPH, 37° C.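 Note: 100% equals the compound amount at 0 min reaction.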
Experimental: After a subject compound was reacted for a certain time using a pooled human liver microsome commercially available, a reacted sample and an unreacted sample are compared to calculate a survival ratio, and then the degree of metabolism in the liver was evaluated.
0.2 mL of a buffer solution (50 mmol/L of Tris-HCl in pH 7.4, 150 mmol/L of potassium chloride, and 10 mmol/L of magnesium chloride) containing a human liver microsome of 0.5 mg protein/mL was reacted in the presence of 1 mmol/L NADPH at 37° C. for 0 or 30 minutes (oxidative reaction). After reacting, 50 μL of the reaction solution was added to 100 μL of a solution of methanol/acetonitrile (1/1 (v/v)), mixed, and then centrifuged at 3000 rpm for 15 minutes. The test compound in the supernatant was quantitated with LC/MS/MS. The amount of the compound at a reaction time of 0 minute was defined as 100% and, based on that, the percentage of the test compound remained after reacting for 30 minutes was calculated.

T1 sequence (P48736 whole entry): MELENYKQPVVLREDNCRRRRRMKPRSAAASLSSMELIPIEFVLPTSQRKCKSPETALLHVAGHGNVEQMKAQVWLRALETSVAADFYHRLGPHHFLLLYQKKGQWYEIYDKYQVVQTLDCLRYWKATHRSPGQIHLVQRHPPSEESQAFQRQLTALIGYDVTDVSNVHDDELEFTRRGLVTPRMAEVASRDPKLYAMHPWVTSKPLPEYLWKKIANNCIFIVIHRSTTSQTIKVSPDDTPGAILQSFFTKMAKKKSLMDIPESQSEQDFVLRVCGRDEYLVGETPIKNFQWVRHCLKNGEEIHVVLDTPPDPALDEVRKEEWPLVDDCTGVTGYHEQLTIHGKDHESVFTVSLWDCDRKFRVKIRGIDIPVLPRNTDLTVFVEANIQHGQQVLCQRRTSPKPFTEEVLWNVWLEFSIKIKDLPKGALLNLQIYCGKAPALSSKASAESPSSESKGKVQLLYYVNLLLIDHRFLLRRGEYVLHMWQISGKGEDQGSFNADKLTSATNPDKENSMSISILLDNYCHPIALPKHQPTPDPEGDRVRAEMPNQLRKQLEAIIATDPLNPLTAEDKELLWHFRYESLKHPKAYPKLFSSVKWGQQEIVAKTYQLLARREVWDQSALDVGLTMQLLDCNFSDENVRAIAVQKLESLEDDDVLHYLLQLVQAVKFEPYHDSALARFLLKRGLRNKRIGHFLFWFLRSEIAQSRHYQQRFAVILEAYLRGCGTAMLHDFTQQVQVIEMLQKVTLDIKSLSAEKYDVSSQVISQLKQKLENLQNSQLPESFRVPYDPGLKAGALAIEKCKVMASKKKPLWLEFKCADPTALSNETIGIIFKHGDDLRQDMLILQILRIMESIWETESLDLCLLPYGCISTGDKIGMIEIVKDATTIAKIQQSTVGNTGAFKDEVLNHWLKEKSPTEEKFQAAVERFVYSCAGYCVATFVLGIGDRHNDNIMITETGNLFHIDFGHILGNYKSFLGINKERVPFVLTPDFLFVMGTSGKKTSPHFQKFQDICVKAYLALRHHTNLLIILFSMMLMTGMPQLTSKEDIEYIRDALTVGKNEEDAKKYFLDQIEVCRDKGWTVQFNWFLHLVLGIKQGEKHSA

Row | SMILES | Ki [4] [nM] | inhibition at 10 µM ([1]; compound at 10 μmol/L) [%] | inhibition [3] [%] | also measured
1 | CNC(=O)Nc1cc2n(n1)CCN2c1ccc(C(N)=O)cc1 [Compound I-160] | – | – | – | inhibition at 50 µM ([1]; PI3Kγ): ≥ 95%; inhibition ratio for the maximum tail current (IKr) [2]: −0.4%
2 | CCOC(=O)CNC(=O)Nc1nc2c(s1)CN(c1cc(OC)nc(OC)n1)CC2 [Compound I-202] | 49 | – | > 99.5 | inhibition at 50 µM ([1]; PI3Kγ): ≥ 95%
3 | CC(=O)Nc1nc2c(s1)CN(c1ccccc1)CC2 [Compound I-230] | – | – | – | inhibition at 50 µM ([1]; PI3Kγ): 81%; solubility at 16 h [5]: > 50 µM; percentage of the test compound remained after reacting for 30 minutes [6]: 87.9%; inhibition ratio for the maximum tail current (IKr) [2]: 9.1%
4 | COc1cc(N2CCc3nc(NC(=O)NCCC(=O)NC(C)(C)C)sc3C2)nc(OC)n1 [Compound I-265] | 42 | – | > 99.5 | inhibition at 10 µM ([1]; PI3Kγ, compound at 10 μM): ≥ 95%
5 | CC(=O)Nc1cc2n(n1)CCN2c1ccc2cnccc2c1 [Compound I-284] | 40 | – | > 99.5 | inhibition at 10 µM ([1]; PI3Kγ, compound at 10 μM): ≥ 95%
6 | CC(=O)Nc1cc2n(n1)CCN2c1ccc2c(c1)CCNC2=O [Compound I-292] | 43 | ≥ 95 | – | –
7 | COc1cc(N2CCc3nc(NC(=O)Nc4ccon4)sc3C2)nc(OC)n1 [Compound I-303] | 45 | 94 | – | percentage of the test compound remained after reacting for 30 minutes [6]: 87.3%
8 | COc1cc(N2CCc3nc(NC(=O)NCCC(=O)N4CCCC4(C)C)sc3C2)nc(OC)n1 [Compound I-318] | 45 | ≥ 95 | > 99.5 | solubility at 16 h [5]: > 50 µM
9 | COC(=O)Nc1cc[nH]c1C(=O)Nc1cc2n(n1)CCN2c1ccc2c(c1)CCN(C)C2=O [Compound I-398] | 49 | ≥ 95 | – | –

Continued by falling Ki [4], values first:

Row | Ki [4] [nM] | inhibition at 10 µM ([1]; compound at 10 μmol/L) [%] | SMILES | inhibition [3] [%] | also measured
10 | 43 | ≥ 95 | COc1cc(N2CCc3nc(NC(=O)NCCC(=O)N(C)C(C)C)sc3C2)nc(OC)n1 [Compound I-310] | > 99.5 | –
11 | 36 | – | COC(=O)[C@H](CC(=O)OC(C)(C)C)NC(=O)Nc1nc2c(s1)CN(c1cc(OC)nc(OC)n1)CC2 [Compound I-277] | – | inhibition at 10 µM ([1]; PI3Kγ, compound at 10 μM): ≥ 95%
12 | 34 | ≥ 95 | CN1CCc2cc(N3CCn4nc(NC(=O)c5ccc(C(=O)NCC(=O)O)s5)cc43)ccc2C1=O [Compound I-415] | – | –
13 | 32 | ≥ 95 | CN1CCc2cc(N3CCn4nc(NC(=O)c5cnc(N)s5)cc43)ccc2C1=O [Compound I-380] | – | –
14 | 23 | ≥ 95 | CN1CCc2cc(N3CCn4nc(NC(=O)c5cnc(NC(=O)OC(C)(C)C)s5)cc43)ccc2C1=O [Compound I-375] | – | –

Reference: patent publication US20110230472A1, “RING-FUSED AZOLE DERIVATIVE HAVING PI3K-INHIBITING ACTIVITY” (Shionogi & Co., Ltd., priority 2008, published 2011)
